In PMC11247627, “Evaluation of Antibacterial Functionalized Dihydropyrimidine Photoaffinity Probes Toward Mechanism of Action Studies” (ACS Medicinal Chemistry Letters, 2024):
≈ marks a conversion by molar mass, not a printed value. Where “and” joins values, the source holds several entries; their conditions need not be identical. Identical values can stand only once. Entries after “also recorded” stand apart in the source; their conditions may differ.

Assays:
[1] = test system: Staphylococcus aureus ATCC 33591 (MRSA); experiment: Antibacterial broth microdilution assay (MIC), MRSA ATCC 33591; assay type: cell-based; settings: Staphylococcus aureus; amount inhibiting >95% of growth (A600), 18 h; suffix 'I' = partial growth inhibition at the value, >95% at higher concentrations; read-out: MIC ATCC 33591
Protocol: (§1) These 24 DHP analogues were then screened for inhibition of Staphylococcus aureus growth using microdilution assays. Growth inhibition was examined in methicillin-sensitive S. aureus (ATCC 12600) and two strains of MRSA (ATCC 33591 and ATCC 43300). Antibiotic controls were included in the screen, including carbenicillin, erythromycin, gentamycin, trimethoprim, and vancomycin, and minimum inhibitory concentrations (MICs) were determined for each compound, which were defined as the concentration required to inhibit >95% of bacterial growth (Table 1).
(§2) Antibacterial Microdilution Assay (MIC Determination)
(§3) 1240 The MIC determination assays were performed in a BSL-2 laboratory with appropriate security and biosafety measures. The MICs were determined using a broth microdilution assay closely following the guidelines of the Clinical and Laboratories Standards Institute (CLSI). MICs were determined in duplicate for two biological replicates using 2-fold serial dilutions of test compounds or commercial antibiotics in cation-adjusted Mueller-Hinton broth. The central 60 wells of 96-well plates were 1245 prepared with the compound of interest at the indicated concentration, where 2 µL of the compound in DMSO were added prior to the addition of the culture. Overnight cultures of the different Staphylococcus aureus strains were diluted to provide an initial inoculum of approximately 5 X 10 5 CFU/mL that was delivered to each well in 198 µL of culture (final DMSO concentration of ~1%). Initial inoculum concentrations were verified by plating to count CFU/mL. Each plate was equipped with 1250 experimental controls for full growth (6 wells) and full growth inhibition (6 wells), and all control wells were in the presence of 1% DMSO. The outer 36 wells were filled with 200 µL of culture each to prevent growth effects on the interior 60 wells. The plates were incubated at 37 °C for 18 hours, at which time they were removed from the incubator and were allowed to equilibrate to room temperature for 30 minutes. Absorbance of each well at 600 nm was then read using a microplate reader to 1255 determine the MIC, and visual confirmation of growth inhibition was also performed. If variation was seen in the experimental values, the highest value of two independent trials was listed.

[2] = test system: Staphylococcus aureus ATCC 43300 (MRSA); experiment: Antibacterial broth microdilution assay (MIC), MRSA ATCC 43300; assay type: cell-based; settings: amount inhibiting >95% of growth (A600), 18 h, suffix 'I' = partial growth inhibition at the value, >95% at higher concentrations; for MIC: Staphylococcus aureus, read-out: MIC ATCC 43300
Protocol: as §1, §2, §3

[3] = test system: red blood cells (defibrinated sheep blood); experiment: Hemolysis assay (red blood cell lysis); assay type: cell-based; settings: concentration producing >20% hemolysis of red blood cells, 1 h, 37 C
Protocol: (§4) 1260 1.5 mL of mechanically defibrinated sheep blood (Hemostat Labs: DSB100) was placed in a microcentrifuge tube and was centrifuged at 10,000 rpm for ten minutes. Following the removal of the supernatant, the cells were resuspended in 1 mL of phosphate-buffered saline (PBS). This process was repeated two more times. The final suspension was diluted ten-fold with PBS and was aliquoted into microcentrifuge tubes containing the compounds which were previously serial diluted in PBS. TritonX 1265 (1% by volume) served as a positive control, while sterile PBS served as a negative control. All samples were incubated at 37 °C and shaken at 200 rpm for 1 hour. After the 1 hour, the samples were centrifuged at 10,000 rpm for 5 minutes and the absorbance of the supernatant was measured via UV spectroscopy at a 540 nm wavelength.

[4] = MTT cytotoxicity assay, HEK293 viability; assay type: cell-based; settings: human, HEK293 cells, 24 h treatment
Protocol: After determining that some of our compounds were quite potent for the inhibition of bacterial growth, we next turned toward assessing broader cytotoxicity trends. […] Further, our previously reported derivatives were also screened for red blood cell (RBC) hemolysis, and the assay indicated a lack of RBC lysis at the highest concentrations tested for all compounds (64 μg/mL).[6] […] This indicates it may have secondary mechanisms of cytotoxicity via nonspecific membrane rupturing activity, albeit, at a much higher concentration than its 2 μg/mL MIC. Next, we examined the compounds’ ability to decrease the viability of an immortalized mammalian cell line (HEK293) using a colorimetric MTT assay.[34] To our surprise, all of the compounds screened produced relatively potent cytotoxicity against this cell line. […] We screened a dihydropyrimidine where the guanidine was substituted with a urea (traditional Biginelli reaction derived), and this compound had no bacterial inhibition but continued to have significant mammalian cytotoxicity, further decoupling the antibacterial activity from mammalian cytotoxicity in these cases. Future studies involving the photoaffinity probes will examine the mechanism by which our compounds exert their growth-inhibiting effects in both bacterial and mammalian cells.
Mammalian cytotoxicity was evaluated using a commercially available MTT Cell proliferation assay 1275 (ATCC 30-1010K; Manassas, VA) following the included protocol. Briefly, Human Embryonic Kidney 293 (HEK-293; ATCC CRL-1353) cells were seeded onto 96 well plates (Nunclon Delta; ThermoFisher 167008; Waltham, MA) coated with Poly-D-Lysine (Thermofisher A3890401) at a density of […] cells per well in 80 µL of Eagle's Minimum Essential Medium (EMEM; ATCC 30-2003) with 10% Fetal Bovine Serum (ATCC 30-2021). Cells were incubated at 37 °C in a 5% CO2 atmosphere and allowed to 1280 adhere overnight, and then treated for 24 h with 20 µL of drugs dissolved in PBS with 0.5% DMSO, at concentrations ranging from 1×10^-4 M to 1×10^-9 M. Following treatment, 10 µL of MTT reagent was added to each well and allowed to incubate at 37 °C for 4 h. Then, 100 μL of detergent reagent was added to all wells, and they were stored at room temperature in the dark for 2 h. Absorbance was then read using a multi-mode spectrophotometer (Spectramax i3X; San Jose, CA) at a wavelength of 570 1285 nm. Raw values were normalized to a 0-100% scale using the maximum and minimum responses. To generate dose-response curves and IC50 values, normalized data were plotted against the log of the drug concentrations and fit to nonlinear curve [log(inhibitor) vs. response – variable slope (four parameters)] using GraphPad Prism version 7.05 (GraphPad Software; San Diego, CA).

[5] = test system: Staphylococcus aureus ATCC 12600; experiment: Antibacterial broth microdilution assay (MIC), methicillin-sensitive S. aureus ATCC 12600; assay type: cell-based; settings: Staphylococcus aureus, ATCC12600; amount inhibiting >95% of growth (A600), 18 h; suffix 'I' = partial growth inhibition at the value, >95% at higher concentrations; read-out: MIC ATCC 12600
Protocol: as §1, §2, §3

Staphylococcus aureus = experiment: S. aureus growth inhibition (all three strains or strain not specified); assay type: cell-based; settings: for antibacterial activity (in words): S. aureus growth; for MIC: Staphylococcus aureus, all three S. aureus strains or strain not specified, read-out: concentration inhibiting S. aureus growth (MIC)
Protocol: as §1, §2, §3

[6] = biological target: T1, recombinant Staphylococcus aureus DHFR (SaDHFR) (Staphylococcus aureus, UniProt P0A017); experiment: Inhibition of recombinant S. aureus DHFR; assay type: biochemical; settings: in vitro
T1 construct: made in house
T1 sequence (P0A017 whole entry): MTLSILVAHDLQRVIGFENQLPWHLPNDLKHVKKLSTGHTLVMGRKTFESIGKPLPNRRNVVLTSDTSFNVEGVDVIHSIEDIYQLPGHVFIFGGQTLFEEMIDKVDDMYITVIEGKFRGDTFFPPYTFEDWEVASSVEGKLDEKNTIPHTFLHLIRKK
Protocol: To explore this, oxidization of DHP 7a to the pyrimidine 8a was performed using phenyliodine diacetate (PIDA) (Figure 3a),[12]−[14] as this oxidation state mimics FDA approved antimicrobial DHFR inhibitors trimethoprim 1 (Figure 1a) and pyrimethamine 9 (Figure 3b).

[7] = Hemolysis assay (red blood cell lysis); assay type: cell-based, sheep; settings: sheep, washed red blood cells from defibrinated sheep blood; 64 μg/mL; read-out: hemolysis (RBC lysis) at 64 μg/mL
Protocol: as §4

[8] = test system: dihydrofolate reductase (DHFR); set-up: method as in PMID 18931753; settings: cited from earlier work
mammalian toxicity = test system: mammalian toxicity; set-up: method as in PMID 18931753; settings: cited from earlier work
MRSA = test system: MRSA; set-up: method as in PMID 18931753, PMID 16883415; settings: cited from earlier work

Compound	MIC [1]	MIC [2]	lysis20 [3]	IC50 at 24 h [4]	MIC [5]	antibacterial activity (in words) (Staphylococcus aureus)	MIC (Staphylococcus aureus)	DHFR inhibition (in words) [6]	hemolysis at 1 h, 64 μg/mL [7]	MIC ATCC 43300 [2]	DHFR inhibition (in words) [8]	mammalian toxicity (in words) (mammalian toxicity)	MRSA growth inhibition (in words) (MRSA)
CCOC(=O)C1=C(c2cccc(F)c2)NC(N)=NC1c1ccc(CC(C)C)cc1 (stereo not drawn) [7h]	4 µg/mL (≈ 10.1 µM)	4 µg/mL (≈ 10.1 µM)	>64 µg/mL	4.4 µM and 1.4 µg/mL	4 µg/mL (≈ 10.1 µM)								
CCOC(=O)c1c(-c2ccccc2)nc(N)nc1-c1ccc(CC(C)C)cc1 [8a]						lacked antibacterial activity	> 64 µg/mL	no inhibition was observed; also recorded: lacked antibacterial activity and DHFR inhibition					
CCOC(=O)C1=C(c2cccc(C(F)(F)F)c2)NC(N)=NC1c1ccc(CC(C)C)cc1 (stereo not drawn) [7f]	2 µg/mL (≈ 4.49 µM)	2 µg/mL (≈ 4.49 µM)	64 µg/mL	1.9 µM and 0.61 µg/mL	2 µg/mL (≈ 4.49 µM)		2 µg/mL (≈ 4.49 µM)		> 20%				
CCOC(=O)C1=C(c2cccc(C(F)(F)F)c2)NC(N)=NC1c1cc(Cl)cc(Cl)c1 (stereo not drawn) [7e]	4 µg/mL (≈ 8.73 µM)	4 µg/mL (≈ 8.73 µM)	>64 µg/mL	9.9 µM and 3.2 µg/mL	4 µg/mL (≈ 8.73 µM)								
CCOC(=O)C1=C(c2cccc(F)c2)NC(N)=NC1c1cc(Cl)cc(Cl)c1 (stereo not drawn) [7g]	8 µg/mL (≈ 19.6 µM)	8 µg/mL (≈ 19.6 µM)	>64 µg/mL	14 µM and 4.5 µg/mL	8 µg/mL (≈ 19.6 µM)								
CCOC(=O)C1=C(c2ccccc2)NC(N)=NC1c1ccccc1 (stereo not drawn) [compound 6]	> 64 µg/mL	> 64 µg/mL	>64 µg/mL	18 µM and 5.8 µg/mL	> 64 µg/mL		> 64 µg/mL			>64 µg/mL			
CCOC(=O)C1=C(c2ccccc2)NC(N)=NC1c1ccc(-c2ccccc2)cc1 (stereo not drawn) [7b]	4 µg/mL (≈ 10.1 µM)	4 µg/mL (≈ 10.1 µM)	>64 µg/mL	9.4 µM and 3 µg/mL	4 µg/mL (≈ 10.1 µM)		4 µg/mL (≈ 10.1 µM)						
CCOC(=O)C1=C(CC)NC(N)=NC1c1ccc(CC(C)C)cc1 (stereo not drawn) [7c]	8 µg/mL (≈ 24.3 µM)	4 µg/mL (≈ 12.1 µM)	>64 µg/mL	11 µM and 3.5 µg/mL									
CCOC(=O)C1=C(c2ccccc2)NC(N)=NC1c1ccc(OC)cc1 (stereo not drawn) [6u]	> 64 µg/mL	> 64 µg/mL	>64 µg/mL	14 µM and 4.5 µg/mL			> 64 µg/mL						
CCOC(=O)C1=C(c2cccc(C)c2)NC(N)=NC1c1cc(Cl)cc(Cl)c1 (stereo not drawn) [7i]	8 µg/mL (≈ 19.8 µM)	8 µg/mL (≈ 19.8 µM)	>64 µg/mL	16 µM and 5.1 µg/mL	8 µg/mL (≈ 19.8 µM)								
CCOC(=O)c1c(C)nc(N)nc1-c1cc(Cl)cc(Cl)c1 [compound 10]						lost all antibacterial activity; also recorded: lacked antibacterial activity		lacked antibacterial activity and DHFR inhibition					
CCOC(=O)C1=C(c2ccccc2)NC(N)=NC1c1cccc(Cl)c1 (stereo not drawn) [6i]	32 µg/mL (≈ 89.9 µM)	32 µg/mL (≈ 89.9 µM)	>64 µg/mL	18 µM and 5.8 µg/mL	32 µg/mL (≈ 89.9 µM)								
CCOC(=O)C1=C(c2ccccc2)NC(N)=NC1c1cc(Cl)cc(Cl)c1 (stereo not drawn) [6j]		8 µg/mL (≈ 20.5 µM)	>64 µg/mL	11 µM and 3.5 µg/mL	8 µg/mL (≈ 20.5 µM)								
CCOC(=O)C1=C(c2ccccc2)NC(N)=NC1c1ccccc1OC (stereo not drawn) [6s]	> 64 µg/mL	> 64 µg/mL	>64 µg/mL	87 µM and 28 µg/mL	> 64 µg/mL					>64 µg/mL			
CCOC(=O)C1=C(c2ccccc2)NC(N)=NC1c1ccc(C(C)C)cc1 (stereo not drawn) [6r]		8 µg/mL (≈ 22 µM)	>64 µg/mL	9.5 µM and 3.1 µg/mL			8 µg/mL (≈ 22 µM)						
CCOC(=O)C1=C(CC)NC(N)=NC1c1cc(Cl)cc(Cl)c1O (stereo not drawn) [compound 2, Emmacin]											previously reported to inhibit DHFR	lack mammalian toxicity	found to inhibit MRSA growth
CCOC(=O)C1=C(c2ccccc2)NC(N)=NC1c1ccc(CC(C)C)cc1 (stereo not drawn) [7a]		4 µg/mL (≈ 10.6 µM)	>64 µg/mL	7.9 µM and 2.5 µg/mL	4 µg/mL (≈ 10.6 µM)		4 µg/mL (≈ 10.6 µM)						
